Earlier results, collected in PMC11012124, “Synthesis of Novel Triazine-Based Chalcones and 8,9-dihydro-7H-pyrimido[4,5-b][1,4]diazepines as Potential Leads in the Search of Anticancer, Antibacterial and Antifungal Agents” (International Journal of Molecular Sciences, 2024).

Experiments:
Design in all cases: method as in earlier work
Conditions in all cases: ref https://dtp.cancer.gov/dtpstandard/cancerscreeningdata/index.jsp, read-out: GI50 5-FU (NS 18893); cited from earlier work
CCRF-CEM = system: CCRF-CEM
HL-60(TB) = system: HL-60(TB)
K-562 = system: K-562
MOLT-4 = system: MOLT-4
RPMI-8226 = system: RPMI-8226
SR = system: SR
HOP-92 = system: HOP-92
NCI-H522 = system: NCI-H522
HCC-2998 = system: HCC-2998
HCT-116 = system: HCT-116
HCT-15 = system: HCT-15
HT29 = system: HT29
KM12 = system: KM12
SW-620 = system: SW-620
SF-539 = system: SF-539
SNB-75 = system: SNB-75
U251 = system: U251
LOX IMVI = system: LOX IMVI
IGROV1 = system: IGROV1
OVCAR-3 = system: OVCAR-3
CAKI-1 = system: CAKI-1
RXF 393 = system: RXF 393
SN12C = system: SN12C
UO-31 = system: UO-31
MCF7 = system: MCF7
MDA-MB-468 = system: MDA-MB-468

O=c1[nH]cc(F)c(=O)[nH]1 [5-FU, 5-fluorouracil]
GI50 (CCRF-CEM): 9.79 µM | GI50 (HL-60(TB)): 2.51 µM | GI50 (K-562): 3.58 µM | GI50 (MOLT-4): 0.35 µM | GI50 (RPMI-8226): 0.04 µM | GI50 (SR): 0.02 µM | GI50 (HOP-92): 78 µM | GI50 (NCI-H522): 7.28 µM | GI50 (HCC-2998): 0.05 µM | GI50 (HCT-116): 0.23 µM | GI50 (HCT-15): 0.11 µM | GI50 (HT29): 0.18 µM | GI50 (KM12): 0.21 µM | GI50 (SW-620): 0.93 µM | GI50 (SF-539): 0.06 µM | GI50 (SNB-75): 78.7 µM | GI50 (U251): 0.91 µM | GI50 (LOX IMVI): 0.25 µM | GI50 (IGROV1): 1.22 µM | GI50 (OVCAR-3): 0.02 µM | GI50 (CAKI-1): 0.07 µM | GI50 (RXF 393): 2.61 µM | GI50 (SN12C): 0.5 µM | GI50 (UO-31): 1.43 µM | GI50 (MCF7): 0.08 µM | GI50 (MDA-MB-468): 6.61 µM
